Assay results: patent US5411960A, “Substituted pyrroloanthracenes and -diones” (Bayer Aktiengesellschaft, priority 1993, dated 1995)

System: human T cells (monocyte-free)
Test: Inhibition of 5-HT-dependent T cell proliferation
Format: cell-based
Conditions: inhibition of T cell proliferation stimulated with PWM (1:200) and 5-HT (100 μm), 3H-thymidine incorporation, 7 days, test range 33 μM-0.1 μM
Source text: The in vitro activity of the compounds according to the invention results from their capability to inhibit T cell proliferation, which is previously stimulated by serotonin.
Peripheral mononuclear blood cells (PBMC) are obtained from the buffy coat of the blood of healthy subjects. After isolation by means of isolymph gradients (Pharmacia), the PBMC are washed twice and used directly. Purified T cells are obtained by E rosette formation with sheep erythrocytes [cf. Blue, M. -L., J. F. Daley, H. Levine, K. A. Craig and S. F. Schlossmann, 1986, Biosynthesis and surface expression of T8 by peripheral blood T4+ cells in vitro, J. Immunol. 137, 1202]. Monocytes are partially removed by adhesion to tissue culture plates or flasks. PBMC, T cells or purified T cells (depleted in monocytes) at 5×10^5 /ml, 100 µl/well are cultured in RPMI 1640 medium with 10% fetal calf serum (GIBCO) and L-glutamine in 96-well microculture plates (Becton-Dickinson) under a 5% CO2 atmosphere at 37° C. for 7 days. The cultures are treated with 1 μCi of ^3 H-thymidine for 6 h on the 7th day and collected on filter paper, and the incorporated radioactivity is determined by means of liquid scintillation counting.
The test substances are dissolved in 10 mM HCl in order to achieve a final concentration of 1 mM in each case. The compounds are diluted serially 3× with medium in order to obtain a final concentration between 33 μM-0.1 μM. PWM (1:200, pokeweed mitogen) and 5-HT (100 μm, serotonin), which contain the test substances, are added to monocyte-free human T cells. The positive control (maximum proliferation ) is obtained from cultures containing T cells, PWM and 5-HT. The negative control (minimal proliferation) is obtained from cultures containing T cells and PWM without 5-HT. The inhibitory activity of the test substances is expressed as the IC50 in μM. (see also WO 92/04015)

Row | SMILES | IC50 [µM]
1 | O=C1C2C3c4ccccc4C(c4ccccc43)C2C(=O)N1CCCN1CC[Si](c2ccccc2)(c2ccccc2)CC1 (centres unmarked) [Example 4] | 20
2 | C1=CC2C3CCC3C1C1CN(CCCN3CC4C5c6ccccc6C(c6ccccc65)C4C3)CC21 (centres unmarked) [Example 11] | 1
3 | O=C1C2C3c4ccccc4C(c4ccccc43)C2C(=O)N1CCCN1CC2C3C=CC(C4CCC34)C2C1 (centres unmarked) [Example 5] | 4
4 | O=C1C2C3c4ccccc4C(c4ccccc43)C2C(=O)N1CCCN1CC2C3C=CC(C4CC34)C2C1 (centres unmarked) [Example 1, 13-[3-(4,6-Etheno-perhydro-cycloprop[f]isoindol-2-yl)propyl]-9,10-dihydro-9,10-[3', 4']-pyrroloanthracene-12,14[11H,15H) -dione] | 5
5 | O=C1C2C3c4ccccc4C(c4ccccc43)C2C(=O)N1CCCN1CC2CC=CC(CO)C2C1 (centres unmarked) [Example 3] | 30
6 | O=C1C2C3c4ccccc4C(c4ccccc43)C2C(=O)N1CCCN1CC2CCN(c3ccccc3)C2C1 (centres unmarked) [Example 2] | 5
7 | c1ccc(N2CCC3CN(CCCN4CC5C6c7ccccc7C(c7ccccc76)C5C4)CC32)cc1 (centres unmarked) [Example 10] | 1
8 | c1ccc(CN2CCOC3CN(CCCN4CC5C6c7ccccc7C(c7ccccc76)C5C4)CC32)cc1 (centres unmarked) [Example 9] | 20
